Results published in article PMC11714206, “Massively Parallel Screening of Toll/Interleukin‐1 Receptor (TIR)‐Derived Peptides Reveals Multiple Toll‐Like Receptors (TLRs)‐Targeting Immunomodulatory Peptides” (Advanced Science, 2024).
Several values for one entry are separate records, joined by “and”; a condition that tells them apart may be missing. Equal entries are not always repeated. One block for each sequence: values may come before it.

Key:
[1] = target: T1, MAL^TIR (Homo sapiens, UniProt P58753); test: T‐Surf phage library (P8 and P3) selection against MAL^TIR, four rounds, NGS read counts; format: binding; settings: for P3_MAL Rank (after) / P3_MAL Rank (before): P3 library; for Population: 4th round of selection against MAL TIR, share of NGS reads; for P8_MAL Rank (after) / P8_MAL Rank (before): P8 library
T1 construct: MAL (residues 79–221); 6xHis; made in house; host or cells: E. coli BL21 (DE3)
T1 sequence (P58753 79-221): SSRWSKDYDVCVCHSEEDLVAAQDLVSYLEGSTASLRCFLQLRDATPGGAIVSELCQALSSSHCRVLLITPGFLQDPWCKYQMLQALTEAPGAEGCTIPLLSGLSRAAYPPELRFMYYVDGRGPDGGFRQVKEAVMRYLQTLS
In short: (§1)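 P8 and P3 T‐Surf libraries panned against plate-coated TIR domains (5 µg mL^−1), 1 h binding at RT, acid elution and TG1/helper-phage amplification per round. After four rounds, pools were PCR-barcoded and sequenced (NovaSeq, 100 bp paired-end, Phred ≥30); peptides ranked by read counts.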

[2] = target: T2, MyD88^TIR (Homo sapiens, UniProt Q99836); test: T‐Surf phage library (P8 and P3) selection against MyD88^TIR, four rounds, NGS read counts; format: binding; settings: for P3_MyD88 Rank (after) / P3_MyD88 Rank (before): P3 library; for Rank (after): P3_MyD88: rank by count after grouping; for Rank (before): P3_MyD88: rank by count before grouping; for Population: 4th round of selection against MyD88 TIR, share of NGS reads
T2 construct: MyD88 (residues 148–296); 6xHis; made in house; host or cells: E. coli BL21 (DE3)
T2 sequence (Q99836 148-296): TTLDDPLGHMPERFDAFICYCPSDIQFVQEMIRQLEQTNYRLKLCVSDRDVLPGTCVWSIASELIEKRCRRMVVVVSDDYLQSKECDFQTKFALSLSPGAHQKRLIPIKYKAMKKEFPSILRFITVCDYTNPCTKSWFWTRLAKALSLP
In short: as §1

[3] = 4R selection against MAL, rank after grouping
[4] = 4R selection against MAL, rank before grouping
[5] = P8_MAL pool: P8 T-Surf phage library
[6] = selection against MyD88, rank after grouping
[7] = selection against MyD88, rank before grouping
[8] = P3_MAL: rank by count after grouping
[9] = P3_MAL: rank by count before grouping
[10] = selection against MAL, rank after grouping
[11] = selection against MAL, rank before grouping
[12] = selection against MAL TIR, rank by count after grouping
[13] = selection against MAL TIR, rank by count before grouping
[14] = P3_MAL pool: P3 T-Surf phage library
[15] = P3_MyD88 pool: P3 T-Surf phage library
[16] = selection against MyD88 TIR, rank by count after grouping
[17] = selection against MyD88 TIR, rank by count before grouping
[18] = 4R selection against MyD88, rank after grouping
[19] = 4R selection against MyD88, rank before grouping
[20] = P8_MAL: rank by count after grouping
[21] = P8_MAL: rank by count before grouping

P3_MAL Rank (after) [1, 3]: 588
P3_MAL Rank (before) [1, 4]: 1798
P3_MyD88 Rank (after) [2, 6]: 537
P3_MyD88 Rank (before) [2, 7]: 1881
Sequence: AFLYTFLINLTHPTNF
Population [1, 5]: 0.00463% and 0.00432% and 0.00402% and 0.00371% and 0.0034% and 0.00309% and 0.00278%

Rank (after) [1, 8]: 106
Rank (before) [1, 9]: 170
Rank (after) [2]: 140
Rank (before) [2]: 935
Sequence: ARLPAICIVIWCSVA

Rank (after) [1, 8]: 130
Rank (before) [1, 9]: 1958
Rank (after) [2]: 391
Rank (before) [2]: 2068
Sequence: DIQRSRFKDDADLVGQ

P3_MAL Rank (after) [1, 10]: 511
P3_MAL Rank (before) [1, 11]: 1972
Rank (after) [2]: 141
Rank (before) [2]: 635
Sequence: DSQSSRFKDDADLVG

P8_MAL Rank (after) [1, 12]: 200
P8_MAL Rank (before) [1, 13]: 2049
Population ([2]; P8_MyD88 pool: P8 T-Surf phage library): 0.00771%
Sequence: ELDFSHFWLFDGQAGGEA

Rank (after) [1, 8]: 135
Rank (before) [1, 9]: 411
Rank (after) [2]: 96
Rank (before) [2]: 361
Sequence: EWIREGLWRLLELSKK

Population [1, 14]: 0.00376%
Rank (after) [1, 8]: 112
Rank (before) [1, 9]: 177
Population [2, 15]: 0.00437%
Sequence: KEVEGWRDALTAAANLSGW

P3_MAL Rank (after) [1, 10]: 565
P3_MAL Rank (before) [1, 11]: 3573
P3_MyD88 Rank (after) [2, 6]: 522
P3_MyD88 Rank (before) [2, 7]: 3634
Sequence: KEVEGWRDALTKVANLSGW

Rank (after) [1, 8]: 134
Rank (before) [1, 9]: 489
Population [2, 15]: 0.00349%
Sequence: KEVEGWRDALTKVANLV

P3_MAL Rank (after) [1, 3]: 652
P3_MAL Rank (before) [1, 4]: 3567
P3_MyD88 Rank (after) [2, 16]: 250
P3_MyD88 Rank (before) [2, 17]: 1304
Sequence: KEVEGWRDALTKWRA

Population [1, 14]: 0.0124%
Rank (after) [1, 8]: 105
Rank (before) [1, 9]: 109
Population [2, 15]: 0.00437%
Sequence: KMQKWKDALYEAANLSGW

P3_MAL Rank (after) [1, 12]: 213
P3_MAL Rank (before) [1, 13]: 2293
P3_MyD88 Rank (after) [2, 18]: 592
P3_MyD88 Rank (before) [2, 19]: 2519
Sequence: LKVESCVRRWKKRAN

Rank (after) [1, 8]: 142
Rank (before) [1, 9]: 847
Population [2, 15]: 0.0032%
Sequence: LKVESWRDALTKVASL

Rank (after) [1, 8]: 122
Rank (before) [1, 9]: 331
Rank (after) [2]: 99
Rank (before) [2]: 383
Sequence: LKVESWRQALEKRAN

P3_MAL Rank (after) [1, 10]: 557
P3_MAL Rank (before) [1, 11]: 2266
P3_MyD88 Rank (after) [2, 6]: 512
P3_MyD88 Rank (before) [2, 7]: 2480
Sequence: LKVESWRQSREKAGKL

P3_MAL Rank (after) [1, 12]: 274
P3_MAL Rank (before) [1, 13]: 844
Rank (after) [2]: 154
Rank (before) [2]: 1073
Sequence: LKWAIRIFGANCVMR

Rank (after) [1, 8]: 143
Rank (before) [1, 9]: 415
P3_MyD88 Rank (after) [2, 16]: 269
P3_MyD88 Rank (before) [2, 17]: 1069
Sequence: LKWGDPYFGANCVMR

Rank (after) [1, 8]: 474
Rank (before) [1, 9]: 2222
P3_MyD88 Rank (after) [2, 16]: 207
P3_MyD88 Rank (before) [2, 17]: 1061
Sequence: LKWGDPYFWSKLRFA

Rank (after) [1, 8]: 123
Rank (before) [1, 9]: 329
Population [2, 15]: 0.00495%
Sequence: LKWGYPWFWDRLRFA

P3_MAL Rank (after) [1, 10]: 534
P3_MAL Rank (before) [1, 11]: 2194
P3_MyD88 Rank (after) [2, 6]: 494
P3_MyD88 Rank (before) [2, 7]: 2400
Sequence: LNGAIRIFGANCVMR

Rank (after) [1, 8]: 116
Rank (before) [1, 9]: 213
Rank (after) [2]: 98
Rank (before) [2]: 680
Sequence: LQNQWKLALTKVANLSGW

Rank (after) [1, 8]: 132
Rank (before) [1, 9]: 327
Rank (after) [2]: 100
Rank (before) [2]: 374
Sequence: LQNQWKLALTKVASL

Rank (after) [1, 8]: 429
Rank (before) [1, 9]: 3263
Rank (after) [2]: 407
Rank (before) [2]: 3358
Sequence: NGHESEIIKEIWIPL

P3_MAL Rank (after) [1, 3]: 638
P3_MAL Rank (before) [1, 4]: 3421
P3_MyD88 Rank (after) [2, 18]: 579
P3_MyD88 Rank (before) [2, 19]: 3536
Sequence: NQWKLALTKVANLV

Population [1, 14]: 0.00564%
Population [2, 15]: 0.00408%
Sequence: NQWRNALTAAANLNGW

P3_MAL Rank (after) [1, 10]: 550
P3_MAL Rank (before) [1, 11]: 3366
P3_MyD88 Rank (after) [2, 6]: 507
P3_MyD88 Rank (before) [2, 7]: 3498
Sequence: NQWRNALTAAANLRL

Population [1, 14]: 0.0162%
Rank (after) [1, 8]: 102
Rank (before) [1, 9]: 105
Population [2, 15]: 0.00553%
Sequence: NQWRNALTAAANLS

P8_MAL Rank (after) [1, 12]: 199
P8_MAL Rank (before) [1, 13]: 1496
Sequence: YFLHFLLCSRPETAYI

P8_MAL Rank (after) [1, 3]: 597
P8_MAL Rank (before) [1, 4]: 1467
Sequence: YFLHFLLFNRPETNYI

P8_MAL Rank (after) [1, 12]: 268
P8_MAL Rank (before) [1, 13]: 1461
Sequence: YFLHFLLFRRPENAYM

P8_MAL Rank (after) [1, 3]: 663
P8_MAL Rank (before) [1, 4]: 1473
Sequence: YFLHFLLFSLPATEYI

P8_MAL Rank (after) [1, 10]: 544
P8_MAL Rank (before) [1, 11]: 1474
Sequence: YFLHFLLFSLPENECI

P8_MAL Rank (after) [1, 12]: 197
P8_MAL Rank (before) [1, 13]: 779
Sequence: YFLHFLLFSLRKPSI

Rank (after) [1, 20]: 464
Rank (before) [1, 21]: 1504
Sequence: YFLHFLLFSRLDTVYI

Population [1, 5]: 0.00278%
Sequence: YFLHFLLFSRLETEYI

Rank (after) [1, 20]: 114
Rank (before) [1, 21]: 1463
Sequence: YFLHFLLFSRPEPAYI

Rank (after) [1, 8]: 386
Rank (before) [1, 9]: 1336
Sequence: YFLHFLLFSRPETEYI

Population [1, 5]: 0.00309%
Sequence: YFLHFLLFSRPETVYI
